Source: patent US9708258B2, “Indole 3-carbinol derivatives” (Cadila Pharmaceuticals Ltd, priority 2013, dated 2017)

Test system: Carrageenan acute paw edema in Wistar rats
Test: anti-inflammatory effect in the acute paw edema model (Carrageenan) in Wistar rats
Type: in vivo
Settings: 50 mg/kg oral, basal = 100; for paw volume, Time 1 hr: 1 hr after carrageenan; for paw volume, Time 2 hr: 2 hr after carrageenan; for paw volume, Time 3 hr: 3 hr after carrageenan; for paw volume, Time 4 hr: 4 hr after carrageenan; for paw volume, Time 5 hr: 5 hr after carrageenan; for paw volume, Time 6 hr: 6 hr after carrageenan
Method: General Procedure for Screening:
Evaluated the anti-inflammatory effect of compounds of formula-I using acute paw edema model in Wistar rats using the following procedure.
All animals will be divided into required number of groups (n=6 per group; 8-12 weeks age) on the basis of body weight. After grouping basal paw volume of all animals will be measured with the help of plethysmometer instrument followed by drug administration by oral route. After 1 hr of dosing 100 μL of 1% Carrageenan prepared in normal saline will be administered in hind paw of all animals by S.C route. After 1 hr of carrageenan dosing paw volume of all animals will be measure up to 6 hr at each 1 hr interval.

Structure (SMILES) | paw volume, Time 1 hr | paw volume, Time 2 hr | paw volume, Time 3 hr | paw volume, Time 4 hr | paw volume, Time 5 hr | paw volume, Time 6 hr
CCCCC(=O)OCc1cn(C(=O)OC(C)(C)C)c2ccccc12 [CPL-2012-144, 3-Pentanoyloxymethyl-indole-1-carboxylic acid tert-butyl ester] | 112.98 | 123.96 | 125.7 | 123.32 | 123.07 | 121.46
CCC(=O)OCc1cn(C(=O)OCc2ccccc2)c2ccccc12 [CPL-2013-158, 3-Propionyloxymethyl-indole-1-carboxylic acid benzyl ester] | 113.82 | 115.12 | 112.02 | 112.46 | 108.11 | 107.2
CC(C)(C)OC(=O)n1cc(C(O)c2cc(F)c(F)cc2F)c2ccccc21 (stereo not drawn) [CPL-2013-156, 3-[Hydroxy-(2,4,5-trifluoro-phenyl)-methyl]indole-1-carboxylic acid tert-butyl ester] | 115.2 | 113.62 | 116.25 | 115.73 | 113.69 | 111.56
CC(C)(C)OC(=O)n1cc(COC(=O)CCC(=O)O)c2ccccc21 [CPL-2012-136, Succinic acid mono-(1-tert-butoxycarbonyl-1H-indol-3-ylmethyl) ester] | 117.26 | 121.86 | 123.85 | 121.57 | 119.72 | 111.76
CCC(=O)OCc1cn(C(=O)OC(C)(C)C)c2ccccc12 [CPL-2012-139, 3-Propionyloxymethyl-indole-1-carboxylic acid tert-butyl ester] | 116.73 | 123.68 | 122.72 | 120.63 | 115.55 | 113.42
